Results as given in US20050118728A1, “Two-layer antibody capture system” (priority 2003, published 2005).
“Also recorded” adds a separate entry of the source.

Test system: phospholipase C-γl
Test: Effect of tyrosine kinase inhibitor on ATP-dependent stimulation of immunocaptured phospholipase C-γl catalytic activity ([3H]PtdIns(4,5)P2 hydrolysis)
Type: biochemical
Conditions: 50 μM genistein, 20 minutes, 35° C.; enzyme captured from rat hippocampal formation P2 extract; in the presence of CaMKII, PKC and PKA inhibitors
Procedure: Anti-phospholipase C-γl antibodies were coated onto biotinylated anti-globulin immobilized on streptavidin at 200 ng of rabbit polyclonal antibody/100 μL per well. Each well was then incubated with 20 μg of rat hippocampal P2 extract overnight, and, subsequently, washed three times (5 minutes each) with room temperature PBS buffer. […]
Phospholipase C-γl enzyme activity was quantified essentially as described in Weeber et al. (Neurobiology of Learning and Memory 76 (2001) 151-182). […] 300 μL of the supernatant containing the reaction product ([^3H]Ins(1,4,5)P3) was removed and quantified by liquid scintillation spectroscopy. Immune-complex-dependent activity was calculated by subtracting background [^3H]Ins(1,4,5)P3 (release present in normal rabbit IgG antibody control samples) from the activity measured in wells containing anti-phospholipase C-γl antibody. Data were calculated as nanomoles Ins(1,4,5)P3 product formed per minute, or per mg protein, or per minute per mg protein present in the extract from which the enzyme was affinity purified.
We sought to determine whether the technique that we used for the affinity capture of phospholipase C-γl allowed for the detection of tyrosine kinase(s) that associate with the phospholipase C-γl. […] The wells were then rinsed with 1.25× phospholipase C assay buffer and the catalytic activity of the isozyme was determined. […]

## O=c1c(-c2ccc(O)cc2)coc2cc(O)cc(O)c12 [genistein]
  ATP-dependent stimulation of phospholipase C-γl catalytic activity: blocks; also recorded: completely inhibited
